Measured values published in the METLIN SMRT retention time set (Domingo-Almenara et al. 2019).

Assay: gradient 5% acetonitrile 3 min, to 50% in 2 min, to 85% in 15 min, held 3 min, 100 µL/min
Details: column: Zorbax Extend-C18 2.1 x 50 mm; eluents: water / acetonitrile, 0.1% formic acid
Summary of the method: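 Retention times come from adduct peaks that were picked computationally and then checked by hand. The standards, pure and pooled in mixtures of ~100 molecules, were run on a Zorbax Extend-C18 column (2.1 × 50 mm, 1.8 μm) at 100 μL/min with water and acetonitrile, each with 0.1% formic acid. Detection was by quadrupole time-of-flight mass spectrometry in positive and negative ionization mode, with a dead volume of 40 μL and a dwell volume of 900 μL.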

| Structure (SMILES) | RP-LC retention time |
| --- | --- |
| Cc1ccc(-c2cn3ccn(-c4ccc(F)cc4)c(=O)c3n2)c(C)c1 | 873 s |
| COc1ccc(-c2nc(C3CC(=O)N(c4ccc(C)cc4)C3)no2)c(OC)n1 (centres undefined) | 1040 s |
| Cc1nc(-c2cccc(-c3noc(COc4ccc(F)cc4)n3)c2)cs1 | 1200 s |
| CCn1cc(-c2nc(C(=O)Nc3ccc(C)cc3F)cs2)c2cccnc21 | 983 s |
| CC(NC(=O)C1CCCN(C(=O)c2cc3sccc3n2C)C1)c1ccc2c(c1)OCCO2 (centres undefined) | 838 s |
| Cc1ccc(NC(=O)c2ccc(=O)n(CCN3CCOCC3)c2)cc1 | 611 s |
| COc1ccccc1C(=O)NC1CCN(c2ccc(C)cc2)C1=O (centres undefined) | 870 s |
| CCOC(=O)c1cc(S(=O)(=O)N2CCCC2C(=O)Nc2ccc3c(c2)OCCO3)cn1C (centres undefined) | 869 s |
| CN(CCc1noc(-c2ccc(C(=O)N3CCCCC3)cc2)n1)C(=O)c1ccc(Br)o1 | 782 s |
| Cc1ccc(C)c(-c2nc(-c3ccc4c(c3)oc(=O)n4C)no2)c1 | 1220 s |
| CCS(=O)(=O)NCc1ccc2c(c1)CCN2C(=O)c1cccc(C)c1 | 815 s |
| CCOC(=O)Nc1ccc(C(=O)/C=C/c2ccccc2)cc1 | 1000 s |
| Cc1ccc(-n2cc3c(N4CCCC(C(=O)NCc5ccc(N(C)C)cc5)C4)ncnc3n2)cc1 (centres undefined) | 600 s |
| COc1ccc(C2Cn3cnc(C(=O)N4CCC(C(=O)NC(C)c5ccccc5)CC4)c3CO2)cc1 (centres undefined) | 751 s |
| CCc1noc(-c2nc(-c3ccc(OC)c(OC)c3)no2)n1 | 976 s |
| COc1ccccc1CCNC(=O)CSc1nc(=O)n(Cc2ccco2)c2c1CCC2 | 739 s |
| Cc1ccc2[nH]cc(CCN3CC(C(=O)Nc4nnc(C(C)(C)C)s4)CC3=O)c2c1 (centres undefined) | 801 s |
| COCCNC(=O)C1(C)CCC(=O)N1CCc1c[nH]c2ccccc12 (centres undefined) | 653 s |
| CCCCN(C)C(=O)Cn1ccn2nc(-c3ccccc3)c(CO)c2c1=O | 776 s |
| CCOc1ccc(CN2C[C@@H]3C(=O)N(Cc4ccc5c(c4)OCO5)C(=O)[C@@H]3C2)cc1 | 658 s |
| CCc1nc2cc(-c3noc(Cc4ccc(F)cc4)n3)ccc2o1 | 1070 s |
| Cn1nc(-c2nncn2CC2CC2)c2c1CCN(C(=O)CC1CCCC1)C2 | 753 s |
| Cc1cc(C)n2nc(SCC(=O)Nc3ccc(F)cc3)nc2n1 | 724 s |
| COc1ccc(S(=O)(=O)CCC(=O)Nc2ccc(Cl)c3ncsc23)cc1 | 707 s |
| COc1ccc(CNC(=O)N2CC=C(c3cn(C)c4ncccc34)CC2)cc1 | 752 s |
| COc1cc2c(cc1OC)C(C(=O)Nc1ccc(C(C)C)cc1)C(c1cccnc1)N(C)C2=O (centres undefined) | 720 s |

| Structure (SMILES) | RP-LC retention time |
| --- | --- |
| CC(=O)c1ccc(NC(=O)CCSc2ccc(F)cc2)cc1 | 835 s |
| CC(C)CNC(=O)c1sc2ncccc2c1-n1cccc1 | 971 s |
| COc1ccc(CNS(=O)(=O)c2ccc3c(c2)CCCC(=O)N3)cc1 | 699 s |
| CCC(=O)Nc1ccc(SCc2cc(C)ccc2C)nn1 | 919 s |
| Cc1cc2c(cc1S(=O)(=O)N1CCC(C(=O)NCCC3=CCCCC3)CC1)OCC(=O)N2 | 820 s |
| CN1c2cc(C(=O)NCc3ccc(F)c(Cl)c3)ccc2C(=O)N2CCCCC21 (centres undefined) | 860 s |
| Cc1cc(C)cc(NC(=O)Cn2cccc2-c2nnc(C3CCC3)o2)c1 | 920 s |
| CC1CCN(CCNC(=O)C2CCCN(c3ncnc4c3nc3n4CCCCC3)C2)CC1 (centres undefined) | 599 s |
| COC1CCC12CCN(C(=O)c1cnn(C)c1)CC2 (centres undefined) | 642 s |
| Cc1ccccc1CNC(=O)c1ncn2c1C(=O)N(C1CC1)C(C)(C(=O)NCc1ccc(F)cc1)C2 (centres undefined) | 798 s |
| COc1cc(=O)n2c(c1C(=O)Nc1ccc(Br)c(C)c1)CCCC2 | 833 s |
| CCOc1ccc(Nc2c(-c3ccccc3)nc3cnccn23)cc1 | 877 s |
| CCn1cc(Br)c(C(=O)Nc2ccc(C(C)=O)cc2)n1 | 829 s |
| CC(C)CCNC(=O)C1CCCCC(=O)N1 (centres undefined) | 670 s |
| C=C1C(=O)OC2CC(C)C3(O)CCC(=O)C3(C)CC12 (centres undefined) | 775 s |
| O=C(CS(=O)Cc1cnn(-c2ccccc2)c1-n1cccc1)NCCc1ccc(Cl)cc1 (centres undefined) | 892 s |
| CC(C)Oc1cc(O)c2c(=O)cc(-c3ccccc3)oc2c1 | 1260 s |
| CCOC(=O)c1cccc(Nc2c(-c3ccc(C(=O)OC)cc3)nc3cnccn23)c1 | 902 s |
| CCS(=O)(=O)N(C1CC1)C1CCOC2(CCN(C(=O)C3CC3)CC2)C1 (centres undefined) | 710 s |
| CC(C)Cc1ccc([C@@H](C)C(=O)NS(C)(=O)=O)cc1 | 1070 s |
| COc1ccc(C2c3[nH]c4ccccc4c3CCN2C(=O)Cc2cccs2)cc1 (centres undefined) | 1110 s |
| Cc1ccc(CNc2nc(-c3nnc(-c4ccccc4)o3)nc3ccccc23)o1 | 991 s |
| COc1ccc(-n2cc(C(=O)OCCc3ccccn3)c3ccccc3c2=O)cc1 | 714 s |
| Cc1c(-c2noc(C(=O)NCCN(C)C)n2)oc2c(C)cccc12 | 676 s |
| CS(=O)(=O)N1CCC(C(=O)N2CCC3(CC2)OCCS3)CC1 | 625 s |
| Cc1ccn2c(NC(=O)c3ccc(Br)cc3)c(-c3ccccc3)nc2c1 | 709 s |

The next lines start with the values.

| RP-LC retention time | Structure (SMILES) |
| --- | --- |
| 762 s | CC(C)n1c(=O)sc2cc(S(=O)(=O)N3CCC(C(=O)NCC4CCCO4)CC3)ccc21 (centres undefined) |
| 1040 s | COc1ccc(Cl)cc1NC(=O)N1CCCC(c2nnc(-c3ccccc3F)s2)C1 (centres undefined) |
| 1160 s | CCOc1ccccc1-c1nc(CN(c2ccccc2)S(=O)(=O)c2cccs2)c(C)o1 |
| 883 s | Cc1cccc(CSc2nnc3c(S(=O)(=O)N4CCCC4)cccn23)c1 |
| 812 s | CC(C)N1CCn2cc(S(=O)(=O)Nc3ccc(Cl)cc3F)cc2C1=O |
| 752 s | Clc1ccc2nc(-c3ccc(N4CCOCC4)cc3)c(Nc3ccccc3)n2c1 |
| 668 s | c1ccc(-c2nc3nc4c(c(N5CCN(C6CCCCC6)CC5)n3n2)CCCC4)cc1 |
| 1030 s | CC(=O)Oc1cc(-c2cccc(C(F)(F)F)c2)c2oc(=O)sc2c1 |
| 829 s | CCc1noc(NC(C)=O)c1-c1ccc(C)c(S(=O)(=O)Nc2ccccc2Cl)c1 |
| 592 s | O=C(Cn1cnc2ccccc21)N1CCN(C(=O)C2CC2c2cccs2)CC1 (centres undefined) |
| 960 s | O=C(NCc1ccccc1)c1nc(Cn2c(=O)oc3ccc(Cl)cc32)no1 |
| 1350 s | CCOC(=O)c1c(C)oc2ncnc(NCCN3CCCc4ccccc43)c12 |
| 717 s | Cc1ccc(Nc2nc(C)cc(N3CCN(C(=O)Nc4cccc(C)c4)CC3)n2)cc1 |
| 1070 s | CC1CCCCN1C(=O)CSc1nc(-c2ccccc2)no1 (centres undefined) |
| 886 s | Cc1ccc(-c2nnc(N3CCC(C(=O)NC(C)c4ccccc4)CC3)o2)cc1 (centres undefined) |
| 951 s | COc1ccccc1-c1nnc(-c2cc(S(=O)(=O)N3CCCC3)ccc2Cl)o1 |
| 829 s | COc1ccccc1-c1noc(C2CCCN2C(=O)c2n[nH]c3ccccc23)n1 (centres undefined) |
| 665 s | CN1CCC(=C2c3ccccc3C(O)c3ccccc32)CC1 (centres undefined) |
| 658 s | CCOc1ccc2ncc(S(=O)(=O)c3ccc(C)c(C)c3)c(N3CCN(C)CC3)c2c1 |

| RP-LC retention time | Structure (SMILES) |
| --- | --- |
| 725 s | Cc1ccccc1NS(=O)(=O)c1ccc2c(c1)CCCC(=O)N2 |
| 633 s | Cc1cc(Cl)ccc1-n1ncc2c(N3CCN(C)CC3)ncnc21 |
| 1030 s | COc1cccc(N2C(=O)C3N=NN(Cc4nc(-c5ccc(C)c(C)c5)no4)C3C2=O)c1 (centres undefined) |
| 1110 s | O=C1CC(c2noc(-c3cc(F)ccc3F)n2)CN1c1ccc(F)c(Cl)c1 (centres undefined) |
| 832 s | O=C(NC1CC1)c1ccc(OCC2CCCN2C(=O)c2ccccc2C(F)(F)F)cc1 (centres undefined) |
| 1220 s | Cc1ccc(-c2nc(NC(=O)c3cc4ccccc4o3)sc2C)cc1 |
| 1300 s | Cc1sc(C)c(S(=O)(=O)N2CCN(c3ccccc3)CC2)c1-c1cc(C(F)(F)F)on1 |
| 738 s | CCOC(=O)c1c(C)oc2nc(C)nc(NCCCN3CCN(c4ccc(F)cc4)CC3)c12 |
| 1110 s | CCOC(=O)c1nc(N2CCN(c3ccc(C)cc3C)CC2)c2ccccc2n1 |
| 1040 s | Cc1ccc(C)c(NC(=O)C(C)Oc2cc(C(F)(F)F)c3c(C)nn(C)c3n2)c1 (centres undefined) |
| 1210 s | COC(=O)c1ccc2c(=O)n(-c3cccc(OC)c3)c(N3CCCCCC3)nc2c1 |
| 735 s | CC(=O)c1ccc(N2CCN(C(=O)C(=O)c3cccn3C)CC2)cc1 |
| 732 s | Cc1cc(=O)n(CC(=O)Nc2ccc3c(c2)OCCO3)c(N2CCc3ccccc3C2)n1 |
| 816 s | CCn1ncc(NC(=O)c2ccc(C)cc2)c(N2CCOCC2)c1=O |
| 1070 s | Cc1cccc(-c2noc(Cn3c(=O)n(-c4ccccc4C)c(=O)c4sccc43)n2)c1 |
| 786 s | Cc1nn(C)cc1CNC(=O)c1cnn2c(C(F)F)cc(-c3ccccc3)nc12 |
| 1120 s | O=C(Cn1nc(N2CCCCCC2)c2ccccc2c1=O)Nc1ccccc1F |
| 1180 s | CCc1ccc(CNC(=O)c2cn(CC)nc2S(=O)(=O)N2CCC(C)CC2)cc1 |
